Two compounds from PMC3972730 (Bioorganic & medicinal chemistry letters, 2010) can be followed below.

Series [1] is described as follows: Metabolite identification in human liver microsomes with NADPH. Conditions: human liver microsomes in the presence of NADPH, LC-MS/MS. The format is in vitro ADME. (Liver microsomes are vesicles of endoplasmic reticulum, rich in cytochrome P450 enzymes.)
Series [2] can be described thus: Microsomal stability in human liver microsomes. The format is in vitro ADME. Conditions: parent remaining after 30mins incubation with human liver microsomes.

As to `O=C(CCc1cnnn1-c1cccc(Cl)c1)c1ccccc1` [Compound 12e], the metabolites formed entry in series [1] was “two metabolites were formed with masses equal to (parent+2) and (parent+16)”. Regarding `CC(C)(C)C(=O)CCc1cnnn1-c1ccccc1` [Compound 13h], in series [2], the HLM % parent is listed as 4%.
